Source: US7745462B2, “Quinoline-2-one derivatives for the treatment of airways diseases” (Novartis AG, priority 2003, dated 2010)
Read-outs that look alike come from different tables or passages of the source.

Assays:
β2-adrenoreceptor = β2-adrenoreceptor (Homo sapiens, UniProt P07550); assay: β2-adrenoreceptor binding potency, classical filtration binding assay
From the text: (§1) The β2 agonist activity, onset of action and duration of action of the agents of the invention may be tested using the guinea pig tracheal strip in vitro assay according to the procedure of R. A. Coleman and A. T. Nials, J. Pharmacol. Methods 1989, 21, 71.

β1-adrenoreceptor = β1-adrenoreceptor (Homo sapiens, UniProt P08588); assay: β1-adrenoreceptor binding potency, classical filtration binding assay
From the text: as §1

[1] = read-out: Ki (β2) binding potency, classical filtration binding assay, first value of β2/β1 pair
[2] = read-out: Ki (β1) binding potency, classical filtration binding assay, second value of β2/β1 pair

Chain of β1-adrenoreceptor (P08588 whole entry, species assumed): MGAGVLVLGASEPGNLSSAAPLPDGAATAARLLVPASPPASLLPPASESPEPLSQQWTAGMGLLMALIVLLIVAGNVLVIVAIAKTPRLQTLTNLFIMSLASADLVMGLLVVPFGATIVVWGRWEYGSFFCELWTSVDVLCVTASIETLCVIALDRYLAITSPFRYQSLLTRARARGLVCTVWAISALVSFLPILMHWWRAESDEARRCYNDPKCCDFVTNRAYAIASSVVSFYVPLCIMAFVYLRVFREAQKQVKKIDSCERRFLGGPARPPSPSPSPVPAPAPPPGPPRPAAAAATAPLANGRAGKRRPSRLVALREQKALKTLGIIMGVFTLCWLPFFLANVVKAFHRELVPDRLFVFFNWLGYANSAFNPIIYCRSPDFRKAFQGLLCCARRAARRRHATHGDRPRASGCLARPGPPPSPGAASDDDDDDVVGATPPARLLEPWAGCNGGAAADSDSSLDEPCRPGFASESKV

Molecule	Ki (β2-adrenoreceptor) [nM]	Ki (β1-adrenoreceptor) [nM]	Ki (β2-adrenoreceptor; [1]) [nM]	Ki (β1-adrenoreceptor; [2]) [nM]
5-[R-2-(1R,2R-2-Benzylcyclopentylamino)-1-hydroxyethyl]-8-hydroxy-1H-quinolin-2-one [Example 35]	–	–	0.4	6
5-[R-2-((3aS,5R,6aR)-2-Butyloctahydrocyclopenta[c]pyrrol-5-ylamino)-1-hydroxyethyl]-8-hydroxy-1H-quinolin-2-one and 5-[R-2-((3aS,5S,6aR)-2-butyloctahydrocyclopenta[c]pyrrol-5-ylamino)-1-hydroxyethyl]-8-hydroxy-1H-quinolin-2-one [Example 85]	–	–	121	380
O=c1ccc2c([C@@H](O)CN[C@@H]3CCc4ccccc43)ccc(O)c2[nH]1 [Example 1, 8-Hydroxy-5-[R-1-hydroxy-2-(R-indan-1-ylamino)ethyl]-1H-quinolin-2-one]	26	186	–	–
CCC1=C(CC)CC2=C(C1)CC(NC[C@H](O)c1ccc(O)c3[nH]c(=O)ccc13)C2 [Example 30, 5-[R-2-(5,6-Diethyl-2,3,4,7-tetrahydro-1H-inden-2-ylamino)-1-hydroxyethyl]-8-hydroxy-1H-quinolin-2-one]	77	132	–	–
COCC1(NC[C@H](O)c2ccc(O)c3[nH]c(=O)ccc23)Cc2ccccc2C1 [Example 55, 8-Hydroxy-5-[R-1-hydroxy-2-(2-methoxymethylindan-2-ylamino)-ethyl]-1H-quinolin-2-one]	128	384	–	–
O=c1ccc2c([C@@H](O)CN[C@H]3Cc4ccc(-c5ccco5)cc4C3)ccc(O)c2[nH]1 [Example 139, 5-[R-2-(S-5-(Furan-2-yl)indan-2-ylamino)-1-hydroxyethyl]-8-hydroxy-1H-quinohnl-2-one]	3	4	–	–

Continued by falling Ki (β2-adrenoreceptor), values first:

Ki (β2-adrenoreceptor) [nM]	Ki (β1-adrenoreceptor) [nM]	Molecule	Ki (β2-adrenoreceptor; [1]) [nM]	Ki (β1-adrenoreceptor; [2]) [nM]
54	50	CCCCc1ccc2c(c1)CCC2NC[C@H](O)c1ccc(O)c2[nH]c(=O)ccc12 (mixture of isomers) [Example 3, 5-[R-2-(RS-5-butylindan-1-ylamino)-1-hydroxyethyl]-8-hydroxy-1H-quinolin-2-one]	–	–
48	491	O=c1ccc2c(C(O)CNC3CCCC3C3CCCCC3)ccc(O)c2[nH]1 (mixture of isomers) [Example 33, 5-[R-2-(1S,2S-2-Cyclohexylcyclopentylamino)-1-hydroxyethyl]-8-hydroxy-1H-quinolin-2-one and 5-[R-2-(1R,2R-2-cyclohexylcyclopentylamino)-1-hydroxyethyl]-8-hydroxy-1H-quinolin-2-one]	–	–
6	115	CC1c2ccccc2CC1NCC(O)c1ccc(O)c2[nH]c(=O)ccc12 (mixture of isomers) [Example 4, 8-Hydroxy-5-[R-1-hydroxy-2-(1R,2S-1-methylindan-2-ylamino)ethyl]-1H-quinolin-2-one and 8-hydroxy-5-[R-1-hydroxy-2-(1S,2R-1-methylindan-2-ylamino)ethyl]-1H-quinolin-2-one]	–	–
